# Measured values reported in US12077503B2, “Substituted cyclic amides and their use as herbicides” (FMC CORPORATION, priority 2015, dated 2024).
# Legend:
# Format in all cases: in vivo
# [1] = tested on: velvetleaf (Abutilon theophrasti); assay: Test G Post-Emergence Protocol; details: Abutilon theophrasti, post-emergence, 312 h
# How it was run: (§1)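 Pot-grown seedlings, 8 days old, raised in a glasshouse at 24/16 °C day/night with 14 h light and 65% humidity, were sprayed post-emergence with test compound in acetone/water (50:50) plus 0.5% Tween 20 at 15.625, 62.5 or 250 g/ha. Damage was scored visually 13 days later on a 0–100 scale (100 = total damage).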
# [2] = tested on: ivy-leaved morning glory (Ipomoea hederacea); assay: Test G Post-Emergence Protocol; details: Ipomoea, post-emergence, 312 h
# How it was run: as §1
# corn (Zea mays) [3] = assay: Test G Post-Emergence Protocol; details: Zea mays, post-emergence, 312 h
# How it was run: as §1
# [4] = tested on: giant foxtail (Setaria faberi); assay: Test G Post-Emergence Protocol; details: Setaria faberi, post-emergence, 312 h
# How it was run: as §1
# [5] = tested on: redroot pigweed (Amaranthus retroflexus); assay: Test G Post-Emergence Protocol; details: Amaranthus retroflexus, post-emergence, 312 h
# How it was run: as §1
# [6] = tested on: barnyardgrass (Echinochloa crus-galli); assay: Test G Post-Emergence Protocol; details: Echinochloa crus-galli, post-emergence, 312 h
# How it was run: as §1
# [7] = tested on: velvetleaf (Abutilon theophrasti); assay: Test G Pre-Emergence Protocol; details: Abutilon theophrasti, pre-emergence, 312 h, evaluated after 13 days
# How it was run: (§2)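 Pots of seeds in standard soil were grown for one day in a glasshouse (24/16 °C day/night, 14 h light, 65% humidity), then sprayed with compound in acetone/water 50:50 with 0.5% Tween 20 at 15.625, 62.5 or 250 g/ha. Damage was scored after 13 days on a 0 (none) to 100 (total) scale.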
# [8] = tested on: ivy-leaved morning glory (Ipomoea hederacea); assay: Test G Pre-Emergence Protocol; details: Ipomoea, pre-emergence, 312 h, evaluated after 13 days
# How it was run: as §2
# corn (Zea mays) [9] = assay: Test G Pre-Emergence Protocol; details: Zea mays, pre-emergence, 312 h, evaluated after 13 days
# How it was run: as §2
# [10] = tested on: giant foxtail (Setaria faberi); assay: Test G Pre-Emergence Protocol; details: Setaria faberi, pre-emergence, 312 h, evaluated after 13 days
# How it was run: as §2
# [11] = tested on: redroot pigweed (Amaranthus retroflexus); assay: Test G Pre-Emergence Protocol; details: Amaranthus retroflexus, pre-emergence, 312 h, evaluated after 13 days
# How it was run: as §2
# [12] = tested on: barnyardgrass (Echinochloa crus-galli); assay: Test G Pre-Emergence Protocol; details: Echinochloa crus-galli, pre-emergence, 312 h, evaluated after 13 days
# How it was run: as §2
smiles,measurement,setting,value
Cc1cccc(NC(=O)[C@@H]2C(=O)N(C)C[C@H]2c2ccc(C(F)(F)F)cc2)c1Br (racemic) [Compound 1617],pest or weed control at 15.625 g/ha,"[1]; 15.625 g ai/ha, evaluated after 13 days (100=total damage to plant; 0=no damage to plant), read-out: Velvetleaf damage rating",0%
same,pest or weed control at 62.5 g/ha,"[1]; 62.5 g ai/ha, evaluated after 13 days, read-out: Velvetleaf damage rating (100=total damage to plant; 0=no damage to plant)",0%
same,pest or weed control at 250 g/ha,"[1]; 250 g ai/ha, evaluated after 13 days, read-out: damage to plant, Velvetleaf (100=total damage to plant; 0=no damage to plant)",0%
same,pest or weed control at 15.625 g/ha,"[2]; 15.625 g ai/ha, evaluated after 13 days (100=total damage to plant; 0=no damage to plant), read-out: Morningglory, Ivy-leaved damage rating",0%
same,pest or weed control at 62.5 g/ha,"[2]; 62.5 g ai/ha, evaluated after 13 days, read-out: Morningglory, Ivy-leaved damage rating (100=total damage to plant; 0=no damage to plant)",0%
same,pest or weed control at 250 g/ha,"[2]; 250 g ai/ha, evaluated after 13 days, read-out: damage to plant, Morningglory, Ivy-leaved (100=total damage to plant; 0=no damage to plant)",0%
same,plant injury at 15.625 g/ha,"corn (Zea mays) [3]; 15.625 g ai/ha, evaluated after 13 days (100=total damage to plant; 0=no damage to plant), read-out: Corn damage rating",0%
same,plant injury at 62.5 g/ha,"corn (Zea mays) [3]; 62.5 g ai/ha, evaluated after 13 days, read-out: Corn damage rating (100=total damage to plant; 0=no damage to plant)",0%
same,plant injury at 250 g/ha,"corn (Zea mays) [3]; 250 g ai/ha, evaluated after 13 days, read-out: damage to plant, Corn (100=total damage to plant; 0=no damage to plant)",0%
same,pest or weed control at 15.625 g/ha,"[4]; 15.625 g ai/ha, evaluated after 13 days (100=total damage to plant; 0=no damage to plant), read-out: Foxtail, Giant damage rating",20%
same,pest or weed control at 62.5 g/ha,"[4]; 62.5 g ai/ha, evaluated after 13 days, read-out: Foxtail, Giant damage rating (100=total damage to plant; 0=no damage to plant)",40%
same,pest or weed control at 250 g/ha,"[4]; 250 g ai/ha, evaluated after 13 days, read-out: damage to plant, Foxtail, Giant (100=total damage to plant; 0=no damage to plant)",70%
same,pest or weed control at 15.625 g/ha,"[5]; 15.625 g ai/ha, evaluated after 13 days (100=total damage to plant; 0=no damage to plant), read-out: Pigweed, Redroot damage rating",0%
same,pest or weed control at 62.5 g/ha,"[5]; 62.5 g ai/ha, evaluated after 13 days, read-out: Pigweed, Redroot damage rating (100=total damage to plant; 0=no damage to plant)",0%
same,pest or weed control at 250 g/ha,"[5]; 250 g ai/ha, evaluated after 13 days, read-out: damage to plant, Pigweed, Redroot (100=total damage to plant; 0=no damage to plant)",0%
same,pest or weed control at 15.625 g/ha,"[6]; 15.625 g ai/ha, evaluated after 13 days (100=total damage to plant; 0=no damage to plant), read-out: Barnyardgrass damage rating",0%
same,pest or weed control at 62.5 g/ha,"[6]; 62.5 g ai/ha, evaluated after 13 days, read-out: Barnyardgrass damage rating (100=total damage to plant; 0=no damage to plant)",0%
same,pest or weed control at 250 g/ha,"[6]; 250 g ai/ha, evaluated after 13 days, read-out: damage to plant, Barnyardgrass (100=total damage to plant; 0=no damage to plant)",60%
same,pest or weed control at 15.625 g/ha,"[7]; 15.625 g ai/ha, read-out: Velvetleaf damage rating (100=total damage to plant; 0=no damage to plant)",0%
same,pest or weed control at 62.5 g/ha,"[7]; 62.5 g ai/ha, 100=total damage to plant, 0=no damage to plant, read-out: plant damage rating, Velvetleaf",0%
same,pest or weed control at 250 g/ha,"[7]; 250 g ai/ha, read-out: Velvetleaf damage rating (100=total damage to plant; 0=no damage to plant)",10%
same,pest or weed control at 15.625 g/ha,"[8]; 15.625 g ai/ha, read-out: Morning-glory, Ivy-leaved damage rating (100=total damage to plant; 0=no damage to plant)",0%
same,pest or weed control at 62.5 g/ha,"[8]; 62.5 g ai/ha, 100=total damage to plant, 0=no damage to plant, read-out: plant damage rating, Morningglory, Ivy-leaved",0%
same,pest or weed control at 250 g/ha,"[8]; 250 g ai/ha, read-out: Morningglory, Ivy-leaved damage rating (100=total damage to plant; 0=no damage to plant)",0%
same,plant injury at 15.625 g/ha,"corn (Zea mays) [9]; 15.625 g ai/ha, read-out: Corn damage rating (100=total damage to plant; 0=no damage to plant)",0%
same,plant injury at 62.5 g/ha,"corn (Zea mays) [9]; 62.5 g ai/ha, 100=total damage to plant, 0=no damage to plant, read-out: plant damage rating, Corn",0%
same,plant injury at 250 g/ha,"corn (Zea mays) [9]; 250 g ai/ha, read-out: Corn damage rating (100=total damage to plant; 0=no damage to plant)",0%
same,pest or weed control at 15.625 g/ha,"[10]; 15.625 g ai/ha, read-out: Foxtail, Giant damage rating (100=total damage to plant; 0=no damage to plant)",20%
same,pest or weed control at 62.5 g/ha,"[10]; 62.5 g ai/ha, 100=total damage to plant, 0=no damage to plant, read-out: plant damage rating, Foxtail, Giant",80%
same,pest or weed control at 250 g/ha,"[10]; 250 g ai/ha, read-out: Foxtail, Giant damage rating (100=total damage to plant; 0=no damage to plant)",90%
same,pest or weed control at 15.625 g/ha,"[11]; 15.625 g ai/ha, read-out: Pigweed, Redroot damage rating (100=total damage to plant; 0=no damage to plant)",0%
same,pest or weed control at 62.5 g/ha,"[11]; 62.5 g ai/ha, 100=total damage to plant, 0=no damage to plant, read-out: plant damage rating, Pigweed, Redroot",10%
same,pest or weed control at 250 g/ha,"[11]; 250 g ai/ha, read-out: Pigweed, Redroot damage rating (100=total damage to plant; 0=no damage to plant)",20%
same,pest or weed control at 15.625 g/ha,"[12]; 15.625 g ai/ha, read-out: Barnyard grass damage rating (100=total damage to plant; 0=no damage to plant)",10%
same,pest or weed control at 62.5 g/ha,"[12]; 62.5 g ai/ha, 100=total damage to plant, 0=no damage to plant, read-out: plant damage rating, Barnyardgrass",30%
same,pest or weed control at 250 g/ha,"[12]; 250 g ai/ha, read-out: Barnyardgrass damage rating (100=total damage to plant; 0=no damage to plant)",80%
